Reference: the NIST ThermoML archive (doi:10.1021/je700132w)
± gives the expanded uncertainty stated by the source.

Details: Liquid; for Critical pressure: Direct measurement; for Critical density: Rectilinear diameter; for Critical temperature: Visual observation in an unstirred cell

Critical pressure	Critical density	Critical temperature	SMILES
4000 ± 60 kPa	233 ± 7 kg/m3	421.2 ± 0.6 K	C=CCC [1-butene]
3620 ± 60 kPa	220 ± 6 kg/m3	409.9 ± 0.6 K	CC(C)C [2-methylpropane]
7380 ± 60 kPa	473 ± 8 kg/m3	304.8 ± 0.6 K	O=C=O [carbon dioxide]

SMILES	Critical pressure	Critical density	Critical temperature
CC(C)CC(C)(C)C [2,2,4-trimethylpentane]	2570 ± 60 kPa	251 ± 7 kg/m3	544.1 ± 0.6 K
